PMC5218480 (PLoS ONE, 2017)

Tested on: MV-4-11 cells
Assay: Gene expression microarray analysis (Affymetrix PrimeView) and GSEA
Type: cell-based, human
Design: RFU PODN (11730768_x_at) / Fold change /veh PODN (11730768_x_at) / RFU LINC00158 (11744669_a_at) / Fold change /veh LINC00158 (11744669_a_at) / RFU DUSP10 (11751237_a_at) / Fold change /veh DUSP10 (11751237_a_at) / RFU ID3 (11757404_x_at) / Fold change /veh ID3 (11757404_x_at) / RFU PLEKHG5 (11737974_s_at) / Fold change /veh PLEKHG5 (11737974_s_at) / RFU LRRC4B (11730491_at) / Fold change /veh LRRC4B (11730491_at) / RFU GIMAP4 (11747438_a_at) / Fold change /veh GIMAP4 (11747438_a_at) / RFU KRT8 (11758183_x_at) / Fold change /veh KRT8 (11758183_x_at) / RFU CNN1 (11734310_a_at) / Fold change /veh CNN1 (11734310_a_at) / RFU VPS37D (11726825_at) / Fold change /veh VPS37D (11726825_at) / RFU C10orf10 (11716522_x_at) / Fold change /veh C10orf10 (11716522_x_at) / RFU KIR2DL2 /// KIR2DL4 /// KIR2DL5A /// KIR2DL5B /// KIR2DS1 /// KIR2DS2 /// KIR2DS3 /// KIR2DS4 /// KIR3DL3 /// KIR3DL3 /// KIR3DS1 (11738374_at) / Fold change /veh KIR2DL2 /// KIR2DL4 /// KIR2DL5A /// KIR2DL5B /// KIR2DS1 /// KIR2DS2 /// KIR2DS3 /// KIR2DS4 /// KIR3DL3 /// KIR3DL3 /// KIR3DS1 (11738374_at) / RFU C1QL1 (11718748_at) / Fold change /veh C1QL1 (11718748_at) / RFU TMPRSS4 (11747572_a_at) / Fold change /veh TMPRSS4 (11747572_a_at) / RFU HAMP (11756126_x_at) / Fold change /veh HAMP (11756126_x_at) / RFU RNFT2 (11725882_a_at) / Fold change /veh RNFT2 (11725882_a_at) / RFU NR4A2 (11747474_a_at) / Fold change /veh NR4A2 (11747474_a_at) / RFU ABCC12 (11746883_a_at) / Fold change /veh ABCC12 (11746883_a_at) / RFU TMEM136 (11760407_x_at) / Fold change /veh TMEM136 (11760407_x_at) / RFU CLDN22 /// WWC2 (11732394_at) / Fold change /veh CLDN22 /// WWC2 (11732394_at) / RFU HLA-DPB1 (11760878_x_at) / Fold change /veh HLA-DPB1 (11760878_x_at) / RFU SPINT1 (11716480_a_at) / Fold change /veh SPINT1 (11716480_a_at) / RFU GAP43 (11754022_s_at) / Fold change /veh GAP43 (11754022_s_at) / RFU A4GNT (11735810_at) / Fold change /veh A4GNT (11735810_at) / RFU PRB3 (11715151_x_at) / Fold change /veh PRB3 (11715151_x_at) / RFU TUBB4B (11761932_at) / Fold change /veh TUBB4B (11761932_at) / RFU CAPN14 (11732068_a_at) / Fold change /veh CAPN14 (11732068_a_at) / RFU TMCC2 (11721928_a_at) / Fold change /veh TMCC2 (11721928_a_at) / RFU IRGQ (11745062_a_at) / Fold change /veh IRGQ (11745062_a_at) / RFU FAM174B (11720279_a_at) / Fold change /veh FAM174B (11720279_a_at) / RFU TMPRSS4 (11748680_a_at) / Fold change /veh TMPRSS4 (11748680_a_at) / RFU FAM212B (11763350_a_at) / Fold change /veh FAM212B (11763350_a_at) / RFU PLEKHG5 (11743358_a_at) / Fold change /veh PLEKHG5 (11743358_a_at) / RFU ZSCAN30 (11745921_a_at) / Fold change /veh ZSCAN30 (11745921_a_at) / RFU CMKLR1 (11741424_a_at) / Fold change /veh CMKLR1 (11741424_a_at) / RFU LOC101060620 /// MAPK8IP1 (11723275_at) / Fold change /veh LOC101060620 /// MAPK8IP1 (11723275_at) / RFU SPTSSB (11747773_x_at) / Fold change /veh SPTSSB (11747773_x_at) / RFU PRSS12 (11739890_at) / Fold change /veh PRSS12 (11739890_at) / RFU BIN1 (11741810_x_at) / Fold change /veh BIN1 (11741810_x_at) / RFU WNT11 (11732464_a_at) / Fold change /veh WNT11 (11732464_a_at) / RFU C10orf10 (11716521_a_at) / Fold change /veh C10orf10 (11716521_a_at) / RFU C5orf56 (11738089_at) / Fold change /veh C5orf56 (11738089_at) / RFU CYB561 (11721691_x_at) / Fold change /veh CYB561 (11721691_x_at) / RFU ANKRD19P (11752326_a_at) / Fold change /veh ANKRD19P (11752326_a_at) / RFU OR2T12 /// OR2T33 /// OR2T8 (11738714_s_at) / Fold change /veh OR2T12 /// OR2T33 /// OR2T8 (11738714_s_at) / RFU VCAN (11748164_a_at) / Fold change /veh VCAN (11748164_a_at) / RFU JSRP1 (11732532_at) / Fold change /veh JSRP1 (11732532_at) / RFU KRTAP10-11 (11738290_x_at) / Fold change /veh KRTAP10-11 (11738290_x_at) / RFU MYO3A (11730013_a_at) / Fold change /veh MYO3A (11730013_a_at) / RFU EBF3 (11725865_a_at) / Fold change /veh EBF3 (11725865_a_at) / RFU CAMK2N1 (11719241_x_at) / Fold change /veh CAMK2N1 (11719241_x_at) / RFU C5orf56 (11738088_a_at) / Fold change /veh C5orf56 (11738088_a_at) / RFU OLFML3 (11715873_a_at) / Fold change /veh OLFML3 (11715873_a_at) / RFU LOC100653217 /// NTM (11731650_a_at) / Fold change /veh LOC100653217 /// NTM (11731650_a_at) / RFU MAPK11 (11762145_a_at) / Fold change /veh MAPK11 (11762145_a_at) / RFU FIZ1 (11724087_x_at) / Fold change /veh FIZ1 (11724087_x_at) / RFU OASL (11726364_x_at) / Fold change /veh OASL (11726364_x_at) / RFU SOX15 (11748057_x_at) / Fold change /veh SOX15 (11748057_x_at) / RFU CD79A (11719716_a_at) / Fold change /veh CD79A (11719716_a_at) / RFU HIST1H1D (11736915_at) / Fold change /veh HIST1H1D (11736915_at) / RFU CASKIN2 (11723855_a_at) / Fold change /veh CASKIN2 (11723855_a_at) / RFU LOC730098 (11760151_x_at) / Fold change /veh LOC730098 (11760151_x_at) / RFU OR4N2 (11742367_at) / Fold change /veh OR4N2 (11742367_at) / RFU PRRT2 (11749266_a_at) / Fold change /veh PRRT2 (11749266_a_at) / RFU SNX32 (11753110_a_at) / Fold change /veh SNX32 (11753110_a_at) / RFU CDHR5 (11726645_a_at) / Fold change /veh CDHR5 (11726645_a_at) / RFU RCAN1 (11760418_a_at) / Fold change /veh RCAN1 (11760418_a_at) / RFU FAM167A (11723789_a_at) / Fold change /veh FAM167A (11723789_a_at) / RFU FAM26E (11764081_at) / Fold change /veh FAM26E (11764081_at) / RFU ISYNA1 (11749810_s_at) / Fold change /veh ISYNA1 (11749810_s_at) / RFU ACY1 (11761880_at) / Fold change /veh ACY1 (11761880_at) / RFU 11764098_at / Fold change /veh 11764098_at / RFU SAMD14 (11745864_x_at) / Fold change /veh SAMD14 (11745864_x_at) / RFU NPB (11741838_a_at) / Fold change /veh NPB (11741838_a_at) / RFU TMPRSS6 (11731388_a_at) / Fold change /veh TMPRSS6 (11731388_a_at) / RFU KRTAP10-2 (11738614_at) / Fold change /veh KRTAP10-2 (11738614_at) / RFU ARHGAP8 /// PRR5-ARHGAP8 (11727945_x_at) / Fold change /veh ARHGAP8 /// PRR5-ARHGAP8 (11727945_x_at) / RFU KRTAP5-7 /// NADSYN1 (11734609_at) / Fold change /veh KRTAP5-7 /// NADSYN1 (11734609_at) / RFU RASL12 (11751679_a_at) / Fold change /veh RASL12 (11751679_a_at) / RFU CDKN2B (11736163_a_at) / Fold change /veh CDKN2B (11736163_a_at) / RFU PRF1 (11729649_at) / Fold change /veh PRF1 (11729649_at) / RFU, ZNF638 /// ZNF638-IT1 / Fold change vs veh, ZNF638 /// ZNF638-IT1 / RFU, PANK3 / Fold change vs veh, PANK3 / RFU, SH3YL1 / Fold change vs veh, SH3YL1 / RFU, ZEB2 / Fold change vs veh, ZEB2 / RFU, NRIP1 / Fold change vs veh, NRIP1 / RFU, PTTG1IP / Fold change vs veh, PTTG1IP / RFU, CAPN2 / Fold change vs veh, CAPN2 / RFU, MED14 / Fold change vs veh, MED14 / RFU, SNORA58 / Fold change vs veh, SNORA58 / RFU, C1orf63 / Fold change vs veh, C1orf63 / RFU, LRRFIP1 / Fold change vs veh, LRRFIP1 / RFU, NDUFAF7 / Fold change vs veh, NDUFAF7 / RFU, SLC12A2 / Fold change vs veh, SLC12A2 / RFU, IBTK / Fold change vs veh, IBTK / RFU, ESF1 / Fold change vs veh, ESF1 / Fold change vs veh, TMEM50B / RFU, TAOK1 / Fold change vs veh, TAOK1 / RFU, ACBD3 / Fold change vs veh, ACBD3 / RFU, TMA16 / Fold change vs veh, TMA16 / RFU, RWDD3 / Fold change vs veh, RWDD3 / RFU, BCAT1 / Fold change vs veh, BCAT1 / RFU, EDEM3 / Fold change vs veh, EDEM3 / RFU, TMEM33 / Fold change vs veh, TMEM33 / RFU, WDR75 / Fold change vs veh, WDR75 / RFU, AHCTF1 / Fold change vs veh, AHCTF1 / RFU, TFRC / Fold change vs veh, TFRC / RFU, ZDHHC17 / Fold change vs veh, ZDHHC17 / RFU, NOM1 / Fold change vs veh, NOM1 / RFU, ARL8B / Fold change vs veh, ARL8B / RFU, ZBTB11 / Fold change vs veh, ZBTB11 / RFU, TAMM41 / Fold change vs veh, TAMM41 / RFU, KIAA1704 /// LOC100996395 / Fold change vs veh, KIAA1704 /// LOC100996395 / RFU, ING1 / Fold change vs veh, ING1 / RFU, TRMT61B / Fold change vs veh, TRMT61B / RFU, FUBP3 / Fold change vs veh, FUBP3 / RFU, TP53 / Fold change vs veh, TP53 / RFU, TNKS2 / Fold change vs veh, TNKS2 / RFU, ZFP14 / Fold change vs veh, ZFP14 / RFU, ACTR2 / Fold change vs veh, ACTR2 / RFU, PPP3R1 / Fold change vs veh, PPP3R1 / RFU, PIK3R1 / Fold change vs veh, PIK3R1 / RFU, HNRNPA1 / Fold change vs veh, HNRNPA1 / RFU, RNF170 / Fold change vs veh, RNF170 / RFU, ZNF28 / Fold change vs veh, ZNF28 / RFU, RNGTT / Fold change vs veh, RNGTT / RFU, OGT / Fold change vs veh, OGT / RFU, BRD1 / Fold change vs veh, BRD1 / RFU, MARS / Fold change vs veh, MARS / RFU, ZNF655 / Fold change vs veh, ZNF655 / RFU, FAHD1 / Fold change vs veh, FAHD1 / RFU, BDP1 / Fold change vs veh, BDP1 / RFU, LRRCC1 / Fold change vs veh, LRRCC1 / RFU, ARID1A / Fold change vs veh, ARID1A / RFU, ZNF146 / Fold change vs veh, ZNF146 / RFU, ZNF330 / Fold change vs veh, ZNF330 / RFU, GPN3 / Fold change vs veh, GPN3 / RFU, C9orf123 / Fold change vs veh, C9orf123 / RFU, N4BP2L2 / Fold change vs veh, N4BP2L2 / RFU, ARFIP1 / Fold change vs veh, ARFIP1 / RFU, FAM179B / Fold change vs veh, FAM179B / RFU, BCL10 / Fold change vs veh, BCL10 / RFU, UHRF1BP1L / Fold change vs veh, UHRF1BP1L / RFU, BET1 / Fold change vs veh, BET1 / RFU, CNOT2 / Fold change vs veh, CNOT2 / RFU, ZNF268 / Fold change vs veh, ZNF268 / Fold change vs veh, ZNF507 / RFU, DGCR2 / Fold change vs veh, DGCR2 / RFU, WDSUB1 / Fold change vs veh, WDSUB1 / Fold change vs veh, HSP90B1 /// MIR3652 / RFU, ADSS / Fold change vs veh, ADSS / RFU, GK / Fold change vs veh, GK / RFU, ZNF148 / Fold change vs veh, ZNF148 / RFU, TAF9 / Fold change vs veh, TAF9 / RFU, SLC1A5 / Fold change vs veh, SLC1A5 / RFU, SLMO2 / Fold change vs veh, SLMO2 / RFU, ABCC4 / Fold change vs veh, ABCC4 / RFU, LOC101060439 /// RAP1B / Fold change vs veh, LOC101060439 /// RAP1B / RFU, RFX7 / Fold change vs veh, RFX7 / RFU, GTPBP10 / Fold change vs veh, GTPBP10 / RFU, CNEP1R1 / Fold change vs veh, CNEP1R1 / RFU, BIVM-ERCC5 /// ERCC5 / Fold change vs veh, BIVM-ERCC5 /// ERCC5 / RFU, ILF3 / Fold change vs veh, ILF3 / RFU 11762660_at / Fold change /veh 11762660_at / RFU VCAN (11757783_s_at) / Fold change /veh VCAN (11757783_s_at) / RFU DDX43 (11728927_at) / Fold change /veh DDX43 (11728927_at) / RFU KRT8 (11758188_x_at) / Fold change /veh KRT8 (11758188_x_at) / RFU NKD1 (11759106_at) / Fold change /veh NKD1 (11759106_at) / RFU SRD5A1 (11742802_a_at) / Fold change /veh SRD5A1 (11742802_a_at) / RFU TPSAB1 /// TPSB2 (11721975_s_at) / Fold change /veh TPSAB1 /// TPSB2 (11721975_s_at) / RFU GSTM3 (11746129_a_at) / Fold change /veh GSTM3 (11746129_a_at) / RFU IL23R (11737362_x_at) / Fold change /veh IL23R (11737362_x_at) / RFU TMEM51 (11727254_a_at) / Fold change /veh TMEM51 (11727254_a_at) / RFU PIWIL2 (11732686_x_at) / Fold change /veh PIWIL2 (11732686_x_at) / RFU ORM1 (11744905_x_at) / Fold change /veh ORM1 (11744905_x_at) / RFU CCDC152 (11743942_at) / Fold change /veh CCDC152 (11743942_at) / RFU ECM1 (11717891_a_at) / Fold change /veh ECM1 (11717891_a_at) / RFU IL23R (11748794_a_at) / Fold change /veh IL23R (11748794_a_at) / RFU TNFAIP8L3 (11732012_x_at) / Fold change /veh TNFAIP8L3 (11732012_x_at) / RFU MBOAT4 (11741988_at) / Fold change /veh MBOAT4 (11741988_at) / RFU 11764193_at / Fold change /veh 11764193_at / RFU TMEM53 (11763286_at) / Fold change /veh TMEM53 (11763286_at) / RFU MAGEB2 (11727129_at) / Fold change /veh MAGEB2 (11727129_at) / RFU TMEM200A (11744735_a_at) / Fold change /veh TMEM200A (11744735_a_at) / RFU CCDC152 (11751479_a_at) / Fold change /veh CCDC152 (11751479_a_at) / RFU FAM211A (11726209_a_at) / Fold change /veh FAM211A (11726209_a_at) / RFU RGS16 (11746705_a_at) / Fold change /veh RGS16 (11746705_a_at) / RFU VCAN (11755009_s_at) / Fold change /veh VCAN (11755009_s_at) / RFU RHOB (11743442_s_at) / Fold change /veh RHOB (11743442_s_at) / RFU RGS16 (11720943_a_at) / Fold change /veh RGS16 (11720943_a_at) / RFU RGS16 (11720944_at) / Fold change /veh RGS16 (11720944_at) / RFU, VPS4B / Fold change vs veh, VPS4B / RFU, CREB1 / Fold change vs veh, CREB1 / RFU, DNAJC13 / Fold change vs veh, DNAJC13 / RFU, GNAQ / Fold change vs veh, GNAQ / RFU, CDK5R1 / Fold change vs veh, CDK5R1 / RFU, ZRANB3 / Fold change vs veh, ZRANB3 / RFU, CUL4A / Fold change vs veh, CUL4A / RFU, CCNY / Fold change vs veh, CCNY / RFU, UFL1 / Fold change vs veh, UFL1 / RFU, COG3 / Fold change vs veh, COG3 / RFU, DIAPH2 / Fold change vs veh, DIAPH2 / RFU, SKA2 / Fold change vs veh, SKA2 / RFU, AFF3 / Fold change vs veh, AFF3 / RFU, LMF1 / Fold change vs veh, LMF1 / RFU, IPO11 / Fold change vs veh, IPO11 / RFU, DFFB / Fold change vs veh, DFFB / RFU, FOXP1 / Fold change vs veh, FOXP1 / RFU, CARD8 / Fold change vs veh, CARD8 / RFU, STRN3 / Fold change vs veh, STRN3 / RFU, ADK / Fold change vs veh, ADK / RFU, RASSF2 / Fold change vs veh, RASSF2 / RFU, WIPF1 / Fold change vs veh, WIPF1 / RFU, LARP1B / Fold change vs veh, LARP1B / RFU, RASA1 / Fold change vs veh, RASA1 / RFU, RB1 / Fold change vs veh, RB1 / RFU, PPFIA1 / Fold change vs veh, PPFIA1 / RFU, MAT2A / Fold change vs veh, MAT2A / RFU, CCT5 / Fold change vs veh, CCT5 / RFU, WDR92 / Fold change vs veh, WDR92 / RFU, CUX1 / Fold change vs veh, CUX1 / RFU, TTC7A / Fold change vs veh, TTC7A / RFU, TMEM135 / Fold change vs veh, TMEM135 / RFU, DEPTOR / Fold change vs veh, DEPTOR / RFU, CPM / Fold change vs veh, CPM / RFU, DNAJB6 / Fold change vs veh, DNAJB6 / RFU, CACNA2D3 / Fold change vs veh, CACNA2D3 / RFU, DTX4 / Fold change vs veh, DTX4 / RFU, TFCP2 / Fold change vs veh, TFCP2 / RFU, GMCL1 /// GMCL1P1 / Fold change vs veh, GMCL1 /// GMCL1P1 / RFU, AEBP2 / Fold change vs veh, AEBP2 / RFU, SNHG1 /// SNORD22 /// SNORD25 /// SNORD26 /// SNORD27 /// SNORD28 /// SNORD29 /// SNORD31 / Fold change vs veh, SNHG1 /// SNORD22 /// SNORD25 /// SNORD26 /// SNORD27 /// SNORD28 /// SNORD29 /// SNORD31 / Fold change (Aza/veh), C12orf56 (ProbeSet 11735607_a_at) / Fold change (ACY-1035/veh), C12orf56 (ProbeSet 11735607_a_at) / Fold change (Aza/veh), FGFR1OP (ProbeSet 11751329_s_at) / Fold change (ACY-1035/veh), FGFR1OP (ProbeSet 11751329_s_at) / Fold change (Aza/veh), VPS36 (ProbeSet 11739960_a_at) / Fold change (ACY-1035/veh), VPS36 (ProbeSet 11739960_a_at) / RFU SYPL1 (11715823_x_at) / Fold change /veh SYPL1 (11715823_x_at) / RFU IGFBP7 (11715501_s_at) / Fold change /veh IGFBP7 (11715501_s_at) / RFU REEP3 (11722064_at) / Fold change /veh REEP3 (11722064_at) / RFU IGLL1 (11728026_x_at) / Fold change /veh IGLL1 (11728026_x_at): dose or concentration left out as unconfirmed
Conditions: MV-4-11 cells, 48 hours

Nc1ncn([C@@H]2O[C@H](CO)[C@@H](O)[C@H]2O)c(=O)n1 [azacitidine]
Fold change /veh PRB3 (11715151_x_at): 0.94
